Results reported in the NIST ThermoML archive (doi:10.1016/j.jct.2019.06.011).
Numbers after ± are expanded uncertainties.

Settings: Liquid, Gas chromatography

| vapor or sublimation pressure (298.15 K) [kPa] | vapor or sublimation pressure (310 K) [kPa] | vapor or sublimation pressure (320 K) [kPa] | vapor or sublimation pressure (330 K) [kPa] | vapor or sublimation pressure (340 K) [kPa] | vapor or sublimation pressure (350 K) [kPa] | vapor or sublimation pressure (360 K) [kPa] | vapor or sublimation pressure (370 K) [kPa] | vapor or sublimation pressure (380 K) [kPa] | vapor or sublimation pressure (390 K) [kPa] | vapor or sublimation pressure (400 K) [kPa] | vapor or sublimation pressure (410 K) [kPa] | vapor or sublimation pressure (420 K) [kPa] | vapor or sublimation pressure (430 K) [kPa] | vapor or sublimation pressure (440 K) [kPa] | vapor or sublimation pressure (450 K) [kPa] | vapor or sublimation pressure (460 K) [kPa] | vapor or sublimation pressure (470 K) [kPa] | vapor or sublimation pressure (480 K) [kPa] | vapor or sublimation pressure (490 K) [kPa] | other results | SMILES |
| --- | --- | --- | --- | --- | --- | --- | --- | --- | --- | --- | --- | --- | --- | --- | --- | --- | --- | --- | --- | --- | --- |
| 0.00097 ± 0.0001 | 0.003 ± 0.0003 | 0.007 ± 0.0007 | 0.015 ± 0.002 | 0.032 ± 0.003 | 0.063 ± 0.006 | 0.12 ± 0.012 | 0.21 ± 0.021 | 0.37 ± 0.037 | 0.62 ± 0.062 | 0.99 ± 0.1 | 1.6 ± 0.16 | 2.4 ± 0.24 | 3.5 ± 0.35 | 5.1 ± 0.51 | 7.3 ± 0.73 | 10 ± 1 | 14 ± 1.4 | 19 ± 1.9 | 25 ± 2.5 | vapor or sublimation pressure (500 K): 33 ± 3.3 kPa; vapor or sublimation pressure (510 K): 42 ± 4.2 kPa; vapor or sublimation pressure (520 K): 54 ± 5.4 kPa; vapor or sublimation pressure (530 K): 68 ± 6.8 kPa; vapor or sublimation pressure (540 K): 85 ± 8.5 kPa; vapor or sublimation pressure (548.3 K): 101.3 ± 10 kPa | CC(C)=CCC[C@@H](C)c1ccc(C)cc1 [(-)-α-curcumene] |
| 0.00081 ± 8e-05 | 0.0025 ± 0.0003 | 0.006 ± 0.0006 | 0.013 ± 0.001 | 0.028 ± 0.003 | 0.056 ± 0.006 | 0.11 ± 0.011 | 0.19 ± 0.019 | 0.33 ± 0.033 | 0.56 ± 0.056 | 0.91 ± 0.091 | 1.4 ± 0.14 | 2.2 ± 0.22 | 3.3 ± 0.33 | 4.8 ± 0.48 | 6.8 ± 0.68 | 9.6 ± 0.96 | 13 ± 1.3 | 18 ± 1.8 | 24 ± 2.4 | vapor or sublimation pressure (500 K): 31 ± 3.1 kPa; vapor or sublimation pressure (510 K): 41 ± 4.1 kPa; vapor or sublimation pressure (520 K): 52 ± 5.2 kPa; vapor or sublimation pressure (530 K): 66 ± 6.6 kPa; vapor or sublimation pressure (540 K): 83 ± 8.3 kPa; vapor or sublimation pressure (549.5 K): 101.3 ± 10 kPa | CC(C)=CCC[C@H](C)[C@@H]1C=CC(C)=CC1 [zingiberene] |
| 0.00063 ± 6e-05 | 0.002 ± 0.0002 | 0.0048 ± 0.0005 | 0.011 ± 0.001 | 0.023 ± 0.002 | 0.046 ± 0.005 | 0.087 ± 0.009 | 0.16 ± 0.016 | 0.28 ± 0.028 | 0.47 ± 0.047 | 0.76 ± 0.076 | 1.2 ± 0.12 | 1.8 ± 0.18 | 2.8 ± 0.28 | 4 ± 0.4 | 5.8 ± 0.58 | 8.2 ± 0.82 | 11 ± 1.1 | 15 ± 1.5 | 20 ± 2 | vapor or sublimation pressure (500 K): 27 ± 2.7 kPa; vapor or sublimation pressure (510 K): 35 ± 3.5 kPa; vapor or sublimation pressure (520 K): 45 ± 4.5 kPa; vapor or sublimation pressure (530 K): 57 ± 5.7 kPa; vapor or sublimation pressure (540 K): 71 ± 7.1 kPa; vapor or sublimation pressure (556.5 K): 101.3 ± 10 kPa | C=C1C=C[C@@H]([C@@H](C)CCC=C(C)C)CC1 [β-sesquiphellandrene] |
